# Reference: PubChem BioAssay AID1259407 (Chemical Carcinogenesis Research Information System (CCRIS), 2018)
# Calls of active or inactive are those of the source. The rule behind the calls is not given here.
# System: CCRIS mutagenicity, Ames/micronucleus/aberration tests
# Test: CCRIS mutagenicity studies
# [1] = Test System: AMES SALMONELLA TYPHIMURIUM, Strain/Indicator: TA100, Metabolic Activation: NONE, Method: STANDARD PLATE
# [2] = Test System: AMES SALMONELLA TYPHIMURIUM, Strain/Indicator: TA1535, Metabolic Activation: NONE, Method: STANDARD PLATE
# [3] = Test System: AMES SALMONELLA TYPHIMURIUM, Strain/Indicator: TA98, Metabolic Activation: NONE, Method: STANDARD PLATE
# [4] = Test System: AMES SALMONELLA TYPHIMURIUM, Strain/Indicator: TA1537, Metabolic Activation: NONE, Method: STANDARD PLATE
structure (smiles),measurement,setting,value
C=CC(C)(C)c1cc2cc3c(cc2oc1=O)OC(C(C)(C)O)C3 (stereo not given),mutagenic call,"Test System: AMES SALMONELLA TYPHIMURIUM, Strain/Indicator: TA92, Metabolic Activation: NONE, Method: SPOT TEST",inactive; negative
same,mutagenic call,"Test System: AMES SALMONELLA TYPHIMURIUM, Strain/Indicator: TA92, Metabolic Activation: RAT, LIVER, S-9, AROCLOR 1254, Method: SPOT TEST",inactive; negative
same,mutagenic call,"Test System: AMES SALMONELLA TYPHIMURIUM, Strain/Indicator: TA94, Metabolic Activation: NONE, Method: SPOT TEST",inactive; negative
same,mutagenic call,"Test System: AMES SALMONELLA TYPHIMURIUM, Strain/Indicator: TA94, Metabolic Activation: RAT, LIVER, S-9, AROCLOR 1254, Method: SPOT TEST",inactive; negative
same,mutagenic call,"Test System: AMES SALMONELLA TYPHIMURIUM, Strain/Indicator: TA97, Metabolic Activation: NONE, Method: SPOT TEST",active; positive
same,mutagenic call,"Test System: AMES SALMONELLA TYPHIMURIUM, Strain/Indicator: TA97, Metabolic Activation: RAT, LIVER, S-9, AROCLOR 1254, Method: SPOT TEST",inactive; negative
same,mutagenic call,"Test System: AMES SALMONELLA TYPHIMURIUM, Strain/Indicator: TA98, Metabolic Activation: NONE, Method: SPOT TEST",active; positive
same,mutagenic call,"Test System: AMES SALMONELLA TYPHIMURIUM, Strain/Indicator: TA98, Metabolic Activation: RAT, LIVER, S-9, AROCLOR 1254, Method: SPOT TEST",inactive; negative
same,mutagenic call,"Test System: AMES SALMONELLA TYPHIMURIUM, Strain/Indicator: TA100, Metabolic Activation: NONE, Method: SPOT TEST",active; positive
same,mutagenic call,"Test System: AMES SALMONELLA TYPHIMURIUM, Strain/Indicator: TA100, Metabolic Activation: RAT, LIVER, S-9, AROCLOR 1254, Method: SPOT TEST",inactive; negative
same,mutagenic call,"Test System: AMES SALMONELLA TYPHIMURIUM, Strain/Indicator: TA102, Metabolic Activation: NONE, Method: SPOT TEST",inactive; negative
same,mutagenic call,"Test System: AMES SALMONELLA TYPHIMURIUM, Strain/Indicator: TA102, Metabolic Activation: RAT, LIVER, S-9, AROCLOR 1254, Method: SPOT TEST",inactive; negative
CC[C@@H](C)OS(C)(=O)=O,mutagenic call,[1],inactive; negative
same,mutagenic call,[2],active; positive
same,mutagenic call,"Test System: CHINESE HAMSTER V-79, Strain/Indicator: V-79/6-THIOGUANINE, Metabolic Activation: NONE",active; positive
O=c1[nH]cc(F)c(=O)[nH]1,mutagenic call,"End Point: IN VITRO MICRONUCLEUS, Test System: CHL/IU CELLS, Metabolic Activation: NONE",active; positive
same,mutagenic call,"End Point: IN VIVO CHROMOSOMAL ABERRATIONS, Test System: BONE MARROW CELLS, Species: MOUSE, Strain/Sex: SWISS/MALE, FEMALE, Route: IP",active; positive (aberrant metaphases)
same,mutagenic call,"End Point: IN VIVO MICRONUCLEUS, Test System: BLOOD ERYTHROCYTES, Species: MOUSE, Strain/Sex: CD-1/MALE, Route: INTRAPERITONEAL INJECTION",active; positive (at highest dose)
same,mutagenic call,"End Point: IN VIVO MICRONUCLEUS, Test System: BONE MARROW POLYCHROMATIC ERYTHROCYTES, Species: MOUSE, Strain/Sex: SWISS/MALE, FEMALE, Route: IP",active; positive
same,mutagenic call,"End Point: In vitro micronucleus, Test System: Human lymphoblastoid TK6 cells, Metabolic Activation: None",active; positive (p<0.001)
same,mutagenic call,"End Point: In vivo micronucleus, Test System: Micronucleated hepatocytes, Species: Rat, Strain/Sex: F344/Male, Route: Intraperitoneal",inactive; negative
same,mutagenic call,"Test System: AMES SALMONELLA TYPHIMURIUM, Strain/Indicator: TA98, Metabolic Activation: HAMSTER, LIVER, S-9, AROCLOR 1254 (10%), Method: PREINCUBATION",inactive; negative
same,mutagenic call,"Test System: AMES SALMONELLA TYPHIMURIUM, Strain/Indicator: TA98, Metabolic Activation: NONE, Method: PREINCUBATION",inactive; negative
same,mutagenic call,[3],inactive; negative
same,mutagenic call,"Test System: AMES SALMONELLA TYPHIMURIUM, Strain/Indicator: TA98, Metabolic Activation: RAT, LIVER, S-9, AROCLOR 1254 (10%), Method: PREINCUBATION",inactive; negative
same,mutagenic call,"Test System: AMES SALMONELLA TYPHIMURIUM, Strain/Indicator: TA98, Metabolic Activation: S-9, Method: PREINCUBATION",inactive; negative
same,mutagenic call,"Test System: AMES SALMONELLA TYPHIMURIUM, Strain/Indicator: TA98, Metabolic Activation: S-9, Method: STANDARD PLATE",inactive; negative
same,mutagenic call,"Test System: AMES SALMONELLA TYPHIMURIUM, Strain/Indicator: TA100, Metabolic Activation: HAMSTER, LIVER, S-9, AROCLOR 1254 (10%), Method: PREINCUBATION",inactive; negative
same,mutagenic call,"Test System: AMES SALMONELLA TYPHIMURIUM, Strain/Indicator: TA100, Metabolic Activation: NONE, Method: PREINCUBATION",inactive; negative
same,mutagenic call,[1],inactive; negative
same,mutagenic call,"Test System: AMES SALMONELLA TYPHIMURIUM, Strain/Indicator: TA100, Metabolic Activation: RAT, LIVER, S-9, AROCLOR 1254 (10%), Method: PREINCUBATION",inactive; negative
same,mutagenic call,"Test System: AMES SALMONELLA TYPHIMURIUM, Strain/Indicator: TA100, Metabolic Activation: S-9, Method: PREINCUBATION",inactive; negative
same,mutagenic call,"Test System: AMES SALMONELLA TYPHIMURIUM, Strain/Indicator: TA100, Metabolic Activation: S-9, Method: STANDARD PLATE",inactive; negative
same,mutagenic call,"Test System: AMES SALMONELLA TYPHIMURIUM, Strain/Indicator: TA102, Metabolic Activation: NONE, Method: STANDARD PLATE",inactive; negative
same,mutagenic call,"Test System: AMES SALMONELLA TYPHIMURIUM, Strain/Indicator: TA1535, Metabolic Activation: HAMSTER, LIVER, S-9, AROCLOR 1254 (10%), Method: PREINCUBATION",inactive; negative
same,mutagenic call,"Test System: AMES SALMONELLA TYPHIMURIUM, Strain/Indicator: TA1535, Metabolic Activation: NONE, Method: PREINCUBATION",inactive; negative
same,mutagenic call,"Test System: AMES SALMONELLA TYPHIMURIUM, Strain/Indicator: TA1535, Metabolic Activation: RAT, LIVER, S-9, AROCLOR 1254 (10%), Method: PREINCUBATION",inactive; negative
same,mutagenic call,"Test System: AMES SALMONELLA TYPHIMURIUM, Strain/Indicator: TA1537, Metabolic Activation: HAMSTER, LIVER, S-9, AROCLOR 1254 (10%), Method: PREINCUBATION",inactive; negative
same,mutagenic call,"Test System: AMES SALMONELLA TYPHIMURIUM, Strain/Indicator: TA1537, Metabolic Activation: NONE, Method: PREINCUBATION",inactive; negative
same,mutagenic call,[4],inactive; negative
same,mutagenic call,"Test System: AMES SALMONELLA TYPHIMURIUM, Strain/Indicator: TA1537, Metabolic Activation: RAT, LIVER, S-9, AROCLOR 1254 (10%), Method: PREINCUBATION",inactive; negative
same,mutagenic call,"Test System: AMES SALMONELLA TYPHIMURIUM, Strain/Indicator: TA2638, Metabolic Activation: NONE, Method: STANDARD PLATE",inactive; negative
same,mutagenic call,"Test System: E. COLI, Strain/Indicator: WP2 (HCR), Metabolic Activation: NONE, Method: STANDARD PLATE",inactive; negative
same,mutagenic call,"Test System: E. COLI, Strain/Indicator: WP2 (HCR), Metabolic Activation: S-9, Method: STANDARD PLATE",inactive; negative
same,mutagenic call,"Test System: E. COLI, Strain/Indicator: WP2 (PKM101), Metabolic Activation: NONE, Method: STANDARD PLATE",inactive; negative
same,mutagenic call,"Test System: E. COLI, Strain/Indicator: WP2 UVRA (PKM101), Metabolic Activation: NONE, Method: STANDARD PLATE",inactive; negative
same,mutagenic call,"Test System: MOUSE LYMPHOMA, Strain/Indicator: L5178Y (TK+/TK-), Metabolic Activation: NONE, Method: MICROWELL",active; positive
same,mutagenic call,"Test System: MOUSE LYMPHOMA, Strain/Indicator: L5178Y (TK+/TK-), Metabolic Activation: S-9, Method: MICROWELL",active; positive
O=c1c2ccccc2[se]n1-c1ccccc1,mutagenic call,[3],inactive; negative
same,mutagenic call,"Test System: AMES SALMONELLA TYPHIMURIUM, Strain/Indicator: TA98, Metabolic Activation: RAT LIVER S-9, PHENOBARBITAL AND 5,6-BENZOFLAVONE, Method: STANDARD PLATE",inactive; negative
same,mutagenic call,[1],inactive; negative
same,mutagenic call,"Test System: AMES SALMONELLA TYPHIMURIUM, Strain/Indicator: TA100, Metabolic Activation: RAT LIVER S-9, PHENOBARBITAL AND 5,6-BENZOFLAVONE, Method: STANDARD PLATE",inactive; negative
same,mutagenic call,[2],inactive; negative
same,mutagenic call,"Test System: AMES SALMONELLA TYPHIMURIUM, Strain/Indicator: TA1535, Metabolic Activation: RAT LIVER S-9, PHENOBARBITAL AND 5,6-BENZOFLAVONE, Method: STANDARD PLATE",inactive; negative
same,mutagenic call,[4],inactive; negative
same,mutagenic call,"Test System: AMES SALMONELLA TYPHIMURIUM, Strain/Indicator: TA1537, Metabolic Activation: RAT LIVER S-9, PHENOBARBITAL AND 5,6-BENZOFLAVONE, Method: STANDARD PLATE",inactive; negative
same,mutagenic call,"Test System: E.COLI, Strain/Indicator: WP2 UVRA, Metabolic Activation: NONE, Method: STANDARD PLATE",inactive; negative
same,mutagenic call,"Test System: E.COLI, Strain/Indicator: WP2 UVRA, Metabolic Activation: RAT LIVER S-9, PHENOBARBITAL AND 5,6-BENZOFLAVONE, Method: STANDARD PLATE",inactive; negative
COc1ccc2c(c1)[C@H]1CCCC[C@@H]1[C@@H]1O[C@H]21,mutagenic call,[3],inactive; negative
same,mutagenic call,[1],inactive; negative
